The source made the active and inactive calls. The rule behind the calls is not given here.
What was measured:
HCT-116 [1] = assay: Induction of molecular glue effect mediated DNMT1 degradation in human HCT-116 cells assessed as reduction in DNMT1 protein level at 100 nM preincubated with TRAF6 inhibitor C25-140 for 2 hrs followed by compound addition and measured after 24 hrs by Western blot analysis; format: cell-based
HCT-116 [2] = assay: Induction of molecular glue effect mediated DNMT1 degradation in human HCT-116 cells assessed as reduction in DNMT1 protein level at 100 nM preincubated with MLN4924 for 2 hrs followed by compound addition and measured after 24 hrs by Western blot analysis; format: cell-based
HCT-116 [3] = assay: Downregulation of DNMT1 protein level in human HCT-116 cells at 1 uM incubated for 12 hrs by MS-based global proteomic analysis; format: functional, cell-based
NCI-H1299 [4] = assay: Induction of molecular glue effect mediated DNMT1 degradation in human NCI-H1299 cells assessed as reduction in DNMT1 protein level at 100 nM preincubated with MG132 for 2 hrs followed by compound addition and measured after 24 hrs by Western blot analysis; format: cell-based
MV4-11 = assay: Antiproliferative activity against human MV4-11 cells assessed as inhibition of cell growth at 0.177 to 15 uM incubated for 7 days by CCK8 assay; format: functional, cell-based; settings: dose 0.177-15 µM, time 7.0 day
HCT-116 [5] = assay: Induction of molecular glue effect mediated DNMT1 degradation in human HCT-116 cells transfected with UHRF1 siRNA assessed as reduction in DNMT1 protein level at 100 nM measured after 24 hrs by Western blot analysis; format: cell-based
HCT-116 [6] = assay: Induction of molecular glue effect mediated DNMT1 degradation in human HCT-116 cells transfected with Smurf2 siRNA assessed as reduction in DNMT1 protein level at 100 nM measured after 24 hrs by Western blot analysis; format: cell-based
HCT-116 [7] = assay: Induction of molecular glue effect mediated DNMT3A degradation in human HCT-116 cells assessed as reduction in DNMT3A protein level at 500 nM incubated for 24 hrs by Western blot analysis; format: cell-based
HCT-116 [8] = assay: Induction of molecular glue effect mediated DNMT1 degradation in human HCT-116 cells assessed as reduction in DNMT1 protein level by measuring maximal efficacy at 1 uM incubated for 24 hrs by Western blot analysis relative to control; format: cell-based
HCT-116 [9] = assay: Induction of molecular glue effect mediated DNMT3B degradation in human HCT-116 cells assessed as reduction in DNMT3B protein level at 500 nM incubated for 24 hrs by Western blot analysis; format: cell-based
HCT-116 [10] = assay: Induction of molecular glue effect mediated DNMT1 degradation in human HCT-116 cells transfected with WWP1 siRNA assessed as reduction in DNMT1 protein level at 100 nM measured after 24 hrs by Western blot analysis; format: cell-based
HCT-116 [11] = assay: Induction of molecular glue effect mediated DNMT1 degradation in human HCT-116 cells assessed as reduction in DNMT1 protein level at 100 nM preincubated with MG132 for 2 hrs followed by compound addition and measured after 24 hrs by Western blot analysis; format: cell-based
HCT-116 [12] = assay: Effect on DNMT1 mRNA level in human HCT-116 cells at 500 nM incubated for 24 hrs by RT-qPCR analysis; format: functional, cell-based
HCT-116 [13] = assay: Antiproliferative activity against human HCT-116 cells assessed as inhibition of cell growth upto 15 uM incubated for 7 days by CCK8 assay relative to control; format: functional; settings: time 7 day, up to 15 µM
NCI-H1299 [14] = assay: Effect on DNMT1 mRNA level in human NCI-H1299 cells at 500 nM incubated for 24 hrs by RT-qPCR analysis; format: functional, cell-based
NCI-H1299 [15] = assay: Induction of molecular glue effect mediated DNMT1 degradation in human NCI-H1299 cells assessed as reduction in DNMT1 protein level at 100 nM preincubated with MLN4924 for 2 hrs followed by compound addition and measured after 24 hrs by Western blot analysis; format: cell-based
HCT-116 [16] = assay: Induction of molecular glue effect mediated DNMT1 degradation in human HCT-116 cells assessed as reduction in DNMT1 protein level at 100 nM preincubated with heclin for 2 hrs followed by compound addition and measured after 24 hrs by Western blot analysis; format: cell-based
MDA-MB-468 [17] = assay: Induction of molecular glue effect mediated DNMT1 degradation in human MDA-MB-468 cells assessed as reduction in DNMT1 protein level at 100 nM preincubated with MG132 for 2 hrs followed by compound addition and measured after 24 hrs by Western blot analysis; format: cell-based
MDA-MB-468 [18] = assay: Effect on DNMT1 mRNA level in human MDA-MB-468 cells at 500 nM incubated for 24 hrs by RT-qPCR analysis; format: functional, cell-based
HCT-116 [19] = assay: Induction of molecular glue effect mediated DNMT1 degradation in human HCT-116 cells transfected with NEDD4 siRNA assessed as reduction in DNMT1 protein level at 100 nM measured after 24 hrs by Western blot analysis; format: cell-based
HCT-116 [20] = assay: Induction of molecular glue effect mediated DNMT1 degradation in human HCT-116 cells assessed as reduction in DNMT1 protein level at 500 nM measured after 24 hrs by Western blot analysis relative to control; format: cell-based; design: scale not given: the % may be the effect or the level left
HCT-116 [21] = assay: Induction of molecular glue effect mediated DNMT1 degradation in human HCT-116 cells assessed as reduction in DNMT1 protein level at 100 nM preincubated with TAK-243 for 2 hrs followed by compound addition and measured after 24 hrs by Western blot analysis; format: cell-based
HCT-116 [22] = assay: Induction of molecular glue effect mediated DNMT1 degradation in human HCT-116 cells assessed as reduction in DNMT1 protein level at 500 nM measured after 2 hrs by Western blot analysis relative to control; format: cell-based; design: scale not given: the % may be the effect or the level left
HCT-116 [23] = assay: Induction of molecular glue effect mediated DNMT1 degradation in human HCT-116 cells assessed as reduction in DNMT1 protein level at 100 nM preincubated with lysosome inhibitor CQ for 2 hrs followed by compound addition and measured after 24 hrs by Western blot analysis; format: cell-based
MDA-MB-468 [24] = assay: Induction of molecular glue effect mediated DNMT1 degradation in human MDA-MB-468 cells assessed as reduction in DNMT1 protein level at 100 nM preincubated with MLN4924 for 2 hrs followed by compound addition and measured after 24 hrs by Western blot analysis; format: cell-based
HCT-116 [25] = assay: Induction of molecular glue effect mediated DNMT1 degradation in human HCT-116 cells assessed as reduction in DNMT1 protein level at 500 nM by Western blot analysis; format: cell-based; settings: time 2-24 hrs
HCT-116 [26] = assay: (§1) Induction of molecular glue effect mediated DNMT1 degradation in human HCT-116 cells assessed as reduction in DNMT1 protein level incubated for 24 hrs by Western blot analysis; format: cell-based
HCT-116 [27] = assay: Induction of molecular glue effect mediated DNMT1 degradation in human HCT-116 cells assessed as reduction in DNMT1 protein level by measuring half-life at 500 nM preincubated with cycloheximide for 2 hrs followed by compound administration and measured after 24 hrs by Western blot analysis; format: cell-based
[28] = as §1; format: cell-based; settings: HCT-116, 24 h

CCc1c(C#N)c(SC(C(N)=O)c2ccccc2)nc(N2CCC(N)CC2)c1C#N (stereo unspecified)
Activity (HCT-116 [1]): Active
Activity (HCT-116 [2]): Active
Activity (HCT-116 [3]): Active
Activity (NCI-H1299 [4]): inactive
Activity (MV4-11): Active
Activity (HCT-116 [5]): Not active; Partial Rescue Of Degradation Observed
Activity (HCT-116 [6]): Active
Activity (HCT-116 [7]): inactive
Emax (HCT-116 [8]): 89%
Activity (HCT-116 [9]): inactive
Activity (HCT-116 [10]): Active
Activity (HCT-116 [11]): inactive
Activity (HCT-116 [12]): inactive
inhibition (INH) (HCT-116 [13]): <50%
Activity (NCI-H1299 [14]): inactive
Activity (NCI-H1299 [15]): Active
Activity (HCT-116 [16]): Not active; Partial Rescue Of Degradation Observed
Activity (MDA-MB-468 [17]): inactive
Activity (MDA-MB-468 [18]): inactive
Activity (HCT-116 [19]): Active
Activity (HCT-116 [20]): 100%
Activity (HCT-116 [21]): inactive
Activity (HCT-116 [22]): < 30%
Activity (HCT-116 [23]): Active
Activity (MDA-MB-468 [24]): Active
Activity (HCT-116 [25]): Time-dependent-effect
Activity (HCT-116 [26]): Dose-dependent-effect
T1/2 (HCT-116 [27]): < 4 h

CCc1c(C#N)c(SC(C(N)=O)c2ccccc2)nc(N2CCN(C(=O)C34CC5CC(CC(C5)C3)C4)CC2)c1C#N (stereo unspecified)
Emax (HCT-116 [8]): 80%
DC50 [28]: 409 nM

CCc1c(C#N)c(SC(C(N)=O)c2ccccc2)nc(N2CCN(C(=O)C3CNC3)CC2)c1C#N (stereo unspecified)
Emax (HCT-116 [8]): 56%
DC50 [28]: 820 nM

CCCNC(=O)C(Sc1nc(N2CCC(N)CC2)c(C#N)c(CC)c1C#N)c1ccccc1 (stereo unspecified)
Emax (HCT-116 [8]): 13%
DC50 [28]: > 1000 nM

CCc1c(C#N)c(SC(C(N)=O)c2ccccc2)nc(N2CCC(=O)N(C)CC2)c1C#N (stereo unspecified)
Emax (HCT-116 [8]): 86%
DC50 [28]: 121 nM

CCc1c(C#N)c(SC(C(N)=O)c2ccccc2)nc(N2CCN(C(C)=O)CC2)c1C#N (stereo unspecified)
Emax (HCT-116 [8]): 87%
DC50 [28]: 107 nM

CCc1c(C#N)c(S[C@@H](C(N)=O)c2ccccc2)nc(N(C)C)c1C#N
Emax (HCT-116 [8]): 89%

CCc1c(C#N)c(SC(C(N)=O)c2ccccc2)nc(N2CCN(C(=O)C3CCCCCC3)CC2)c1C#N (stereo unspecified)
Emax (HCT-116 [8]): 87%
DC50 [28]: 175 nM

CCc1c(C#N)c(SC(C(N)=O)c2ccccc2)nc(N2CCC(NC(=O)C34CC5CC(CC(C5)C3)C4)CC2)c1C#N (stereo unspecified)
Emax (HCT-116 [8]): 92%
DC50 [28]: 35 nM

CCc1c(C#N)c(SC(C(N)=O)c2ccccc2)nc(N2CCN(C(=O)c3ccc(Br)cc3)CC2)c1C#N (stereo unspecified)
Emax (HCT-116 [8]): 79%
DC50 [28]: 563 nM

CCc1c(C#N)c(SC(C(N)=O)c2ccccc2)nc(N2CCN(C(=O)c3ccco3)CC2)c1C#N (stereo unspecified)
Emax (HCT-116 [8]): 94%
DC50 [28]: 42 nM

CCc1c(C#N)c(SC(C(N)=O)c2ccccc2)nc(N2CCCNCC2)c1C#N (stereo unspecified)
Emax (HCT-116 [8]): 87%
DC50 [28]: 119 nM

CCc1c(C#N)c(SC(C(=O)NC)c2ccccc2)nc(N2CCC(N)CC2)c1C#N (stereo unspecified)
Emax (HCT-116 [8]): 82%
DC50 [28]: 111 nM

CCc1c(C#N)c(SC(C(N)=O)c2ccccc2)nc(N2CCN(C(=O)c3cc[nH]n3)CC2)c1C#N (stereo unspecified)
Emax (HCT-116 [8]): 89%
DC50 [28]: 144 nM

CCc1c(C#N)c(SC(C(N)=O)c2ccccc2)nc(N2CCN(C(=O)c3ccc(C(C)C)s3)CC2)c1C#N (stereo unspecified)
Emax (HCT-116 [8]): 71%
DC50 [28]: 405 nM

CCc1c(C#N)c(SC(C(N)=O)c2ccccc2)nc(N2CCC(N(C)C)CC2)c1C#N (stereo unspecified)
Emax (HCT-116 [8]): 92%
DC50 [28]: 35 nM

CCc1c(C#N)c(SC(C(N)=O)c2ccccc2)nc(N2CCN(C)C(=O)C2)c1C#N (stereo unspecified)
Emax (HCT-116 [8]): 87%
DC50 [28]: 190 nM

CCC(=O)N1CCN(c2nc(SC(C(N)=O)c3ccccc3)c(C#N)c(CC)c2C#N)CC1 (stereo unspecified)
Emax (HCT-116 [8]): 89%
DC50 [28]: 51 nM

From ChEMBL document CHEMBL6121066, “Structure-Activity Relationship Studies of DNA Methyltransferase 1 Monovalent Degraders” (J Med Chem, 2025)
